Where “and” joins values, the source holds several entries; their conditions need not be identical. Equal values may be shown once.
Assays:
[1] = system: 4F2hc; assay: HAT heavy chain 4F2hc on large-monocyte fraction of LPS-stimulated human PBMC, peak value by FACScan (polyclonal antibody); format: cell-based
Experimental: In the same manner as in 1) to 5) of Experimental Example 1, to human peripheral blood mononuclear cells, the test compound (6-2) (final concentration: 10 nM) or the test compound (7-3) (final concentration: 100 nM) was added at the same time when LPS (final concentration: 80 μg/ml) was added, followed by 6-day culture. Further, in the same manner as above, using rabbit anti-human 4F2hc polyclonal antibodies (see Biol Pharm Bull 30:415-422, 2007) as a primary antibody, the peak value of HAT expressed on the fraction of large-macrophages (larger than monocyte macrophages) in human PBMC was measured by FACScan using a commercially available cell fix/cell membrane infiltration kit (trade name: BD Cytofix/Cytoperm™ Kit, catalog No. 554714, BD Biosciences).
As a control, the one with no test-compound addition was used, and as a rabbit anti-human rBAT (related to b^0,+-type amino acid transporter) polyclonal antibody, the one obtained by coupling a synthesized peptide composed of an amino-terminal of human rBAT (MAEDKSKRDSIEMSMKGC (SEQ ID NO: 2)) and a carboxyl-terminal of mouse b^0,+AT (BAT1) (CHLQMLEWPEKDPE (SEQ ID NO: 3)) to a carrier KLH (keyhole-limpet hemocyanin), and immunizing a rabbit with it.

[2] = system: rBAT; assay: rBAT on large-cell fraction of interferon γ-stimulated THP-1, peak value by FACScan; format: cell-based, human
Experimental: The same procedures as in Experimental Example 2 were taken except the following conditions: human leukemia culture cell line THP-1 was used instead of the human peripheral blood mononuclear cells; the final addition concentration of the test compound (6-2) was set to 100 nM; fetal bovine serum was used instead of the human AB serum; and human recombinant interferon γ (PHP050, Serotec) (final concentration: 100 ng/ml) was used instead of LPS. Also, using rabbit anti-human 4F2hc polyclonal antibodies (see Biol Pharm Bull 30: 415-422, 2007) as the primary antibody, the peak value of HAT expressed on the fraction of large-cells in human leukemia culture cell strain THP-1, compared with those not stimulated with LPS, was measured. As a control, the one with no test-compound (DMSO alone) was used, and the rabbit anti-human rBAT polyclonal antibodies were obtained in the same manner as in Experimental Example 2.

[3] = system: rat unilateral ureteral obstruction release model; assay: Rat unilateral ureteral obstruction release model: glomerular and tubulointerstitial lesions, Asc-1+ cells; format: in vivo, SD rat;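 for Tubulointerstitial lesion: atrophy of tubules associated with dilatation of tubules (score): ± very light + light ++ moderate +++ high change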;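 for Tubulointerstitial lesion: fibrosis of interstitial tissue (score): ± very light + light ++ moderate +++ high change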;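 for Tubulointerstitial lesion: thickness of basement membrane (score): ± very light + light ++ moderate +++ high change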
Source text: An experimental model was produced in accordance with the method devised and established by Ishibashi (Michio Ishibasi et al., Japanese Journal of Nephrology 42: 248, 2000), using a 8 to 9-week-old male SD rat weighing about 280 g. […] On day 14 after obstruction, the obstruction was released, and the urinary tract was reconstructed using a cuff. That is, 14 days later, the ligated ureteral obstruction part was partially removed, and a 25 gauge polyethylene tube (made by Nippon Sherwood) as a cuff was inserted from the lower normal ureteral stump and placed in the lumen. Next, the cuff was placed also in the expanded upper ureter, and both parts were ligated for fixation with a 7-0 nylon suture to reconstruct the urinary tract. At the same time, the right kidney was removed. The weight was measured after obstruction release, and the blood was collected on days 2, 5, and 7 after release for serum creatinine determination. On day 7, the rat was sacrificed under anesthesia and the left obstruction release kidney was removed. The weight of the removed kidney was measured, and the kidney pathomorphological examination was performed.
The biological effects of the test compound were studied in vivo using the model obtained in the above procedure 1). The test compound in the form of bulk powder was dissolved in sterilized physiologic saline together with gum arabic, where the concentration of the gum arabic was adjusted to 5% and the concentration of the test compound was adjusted to 30 mg/ml. The amount of 30 mg/kg was subcutaneously administered every day. Daily administration was continued for 21 days during 14 days of obstruction and 7 days after obstruction release. For controlled comparison, the solvent of 5% gum arabic was administered alone.
On day 22 from the administration of the test compound, the rat was sacrificed under anesthesia, and the left obstruction release kidney was removed and neutral formalin fixed. The fixed renal tissue embedded in paraffin was sliced into 4-micrometer-thick pieces for examination.
The tissue section was observed under a microscope in order to count the number of glomeruli and the number of glomeruli having a lesion (expansion of a tubular pole associated with swollen Bowman's capsule epithelial cells or hypertrophy of a Bowman's capsule basal membrane) in the field of view, and the number of glomeruli having the lesion (referred to as “lesioned glomerulus”) per 50 glomeruli was calculated.
As for the effectiveness to improve of glomerular lesions, when the number of lesioned glomeruli per 50 glomeruli was reduced to less than or equal to half the average number of those of the control group, it was determined as improved.
An affinity-purified anti-rat Asc-1 polyclonal antibody (rabbit) was prepared as follows: that is, in order to prepare an anti-Asc-1 peptide polyclonal antibody (rabbit), an oligopeptide (PSPLPITDKPLKTQC (SEQ. ID NO: 4)) corresponding to amino acid residues of 517-530 of Asc-1 was synthesized (see J Biol Chem (2000); 275: 9690-9698), keyhole limpet hemocyanine was bound to the C-terminal cysteine as an adjuvant, and […] was immunized therewith. The serum was collected on days 7 and 14 from the immunization. The serum was concentrated by means of an adsorption-dissociation operation using an affinity column to which an oligopeptide corresponding to amino acid residues of 517-530 of Asc-1 was bound in order to obtain an affinity-purified antibody having a protein content of 0.5 mg/ml. As for immunopathological examination, paraffin rat […] diluted with PBS to the optimal concentration was used.
The immune tissue staining was performed based on the protocol of Ventana HX system bench mark (Ventana Japan K.K., Tokyo) including the automated immunostaining device manufactured by Ventana Japan K.K. After deparaffinization, the tissue section was heat-treated at 100° C. for 1 hour. […]

[4] = group average ± standard deviation
[5] = individual animal, 30 mg/kg s.c. daily for 21 days, 30 mg/kg
[6] = individual animal, points: ± 0.5, + 1, ++ 2, +++ 3

For `O=C1CCC(F)(C(=O)OCc2ccccc2)O1` (centres unmarked) [Compound (6-2)], the “Change in HAT expressed on large-monocyte fraction of human PBMC (peak value by FACScan), 4F2hc” value ([1]; human PBMC + LPS 80 μg/ml, 6-day culture, test compound 10 nM, solvent control 23) was 10, the “amount of 4F2hc in the heavy chain of HAT (in words)” value ([1]; human PBMC + LPS, summary of Table 2) was “selectively decreased” and the “Change in HAT expressed on large-cell fraction of THP-1 (peak value by FACScan), rBAT” value ([2]; THP-1 + human recombinant interferon γ 100 ng/ml, test compound 100 nM, solvent control 55) was 50. The “amount of rBAT (in words)” value ([2]; THP-1 + interferon γ, summary of Table 4) was “without any influence”, the “Glomerular lesion: number of lesioned glomeruli per 50 glomeruli, expansion of tubular pole associated with swollen Bowman's capsule epithelial cells” value [3, 4] was 3 ± 2 per 50 glomeruli and the “Glomerular lesion: number of lesioned glomeruli per 50 glomeruli, hypertrophy of Bowman's capsule basal membrane” value [3, 4] was 7 ± 2 per 50 glomeruli. For the same compound, the “Number of Asc-1+ cells per 50 glomeruli” value [3, 4] was 8.01 ± 1.96 per 50 glomeruli, the “Tubulointerstitial lesion: atrophy of tubules associated with dilatation of tubules (score)” value [3, 4] was 0.90 ± 0.3 and the “Tubulointerstitial lesion: fibrosis of interstitial tissue (score)” value [3, 4] was 1.5 ± 0.6. For the same compound, the “Tubulointerstitial lesion: thickness of basement membrane (score)” value [3, 4] was 1.5 ± 0.6, the “Tubulointerstitial lesion: total score” value [3, 4] was 3.9 ± 1.0 and the “Glomerular lesion: number of lesioned glomeruli per 50 glomeruli, expansion of tubular pole associated with swollen Bowman's capsule epithelial cells” value [3, 5] was 2 per 50 glomeruli (2×) and 5 per 50 glomeruli and 1 per 50 glomeruli. For the same compound, the “Glomerular lesion: number of lesioned glomeruli per 50 glomeruli, hypertrophy of Bowman's capsule basal membrane” value [3, 5] was 6 per 50 glomeruli and 9 per 50 glomeruli and 5 per 50 glomeruli and 8 per 50 glomeruli, the “Number of Asc-1+ cells per 50 glomeruli” value [3, 5] was 9.40 per 50 glomeruli and 9.05 per 50 glomeruli and 5.12 per 50 glomeruli and 8.47 per 50 glomeruli and the “Improvement of glomerular lesion” value ([3]; individual animal, Yes = lesioned glomeruli per 50 glomeruli reduced to less than or equal to half the control average) was “Yes (3×) and No”. The “Improvement of tubulointerstitial lesion” value ([3]; individual animal, Yes = reduced to less than or equal to half the control average) was “No”, the “Tubulointerstitial lesion: atrophy of tubules associated with dilatation of tubules (score)” value [3, 6] was 1 (3×) and 0.5 and the “Tubulointerstitial lesion: fibrosis of interstitial tissue (score)” value [3, 6] was 1 (2×) and 2 (2×). The “Tubulointerstitial lesion: thickness of basement membrane (score)” value [3, 6] was 1 (2×) and 2 (2×), the “Tubulointerstitial lesion: total score” value ([3]; individual animal, sum of the three scores) was 3 (2×) and 4.5 and 5 and the “glomerular lesion (in words)” value ([3]; summary of Table 5) was “selectively reduced”. For the same compound, the “uriniferous tubule lesion (in words)” value ([3]; summary of Table 5) was “not reduced” and the “Asc-1 positive cells in the glomeruli (in words)” value ([3]; versus control group) was “increased more significantly than in the control group”.

Reference: patent US20090041719A1, “Method for screening therapeutic agent for glomerular disorder” (priority 2006, published 2009)
